# In patent publication US20040209897A1 (Pharmacia Corporation, priority 2002, published 2004):
# Assays:
# SCW-induced arthritis = assay: Streptococcus cell wall (SCW)-induced arthritis, paw volume / paw swelling; assay type: in vivo; details: rats, FIG. 4, A at 20, 60, 200 mpk/day, B at 60, 120, 240 mpk/day
# [1] = tested on: streptococcal cell wall (SCW)-induced arthritis; assay: Chronic streptococcal cell wall (SCW)-induced arthritis in Lewis rats, paw volume; assay type: in vivo; details: female Lewis rats, daily dosing from day 10, paw volume measured 11 days after start of administration, A at 200, 60, 20 mpk/day, B at 240, 120, 60 mpk/day, FIG. 3
# Excerpt: The use of Lewis rats with chronic streptococcal cell wall (SCW)-induced arthritis as models for testing potentially therapeutic compounds has been described by Richards, P. J., et al., Rhermatology (Oxford), 40(9):978-987 (2001), and Melay, L. M. et al, Bioorg. Med. Chem., 9(2):537-554 (2001), among others. In the present test, female Lewis rats were divided into eight groups. One group served as the “normal” control and received no arthritis inducement. Chronic streptococcal cell wall (SCW)-induced arthritis was induced in the remaining seven groups. One of the severn groups in which arthritis was induced served as a “vehicle” control and received dosage only of vehicle at the same intervals as those rats receiving the test compounds. Three additional groups of rats received the vehicle plus 2-{2-[(E)-2-phenylethenyl]pyridin-4-yl}-1,5,6,7-tetrahydro-4H-pyrrolo[3,2-c]pyridin-4-one (Compound “A”) in daily dosages. All rats were started on the test at day 0. […]
# To measure the effectiveness of the compounds for the treatment of SCW-induced arthritis, rat paw volume was measured at eleven (11) days from the initiation of administration of the test compounds. […]
# MK-2 = details: cited from earlier work
# endotoxin-induced shock = details: murine model of endotoxin-induced shock; cited from earlier work
# [2] = tested on: collagen-induced arthritis; details: mouse; cited from earlier work
# adjuvant arthritis = details: rat; cited from earlier work
# granulomas = details: laboratory rats; cited from earlier work
structure (smiles),measurement,setting,value
"O=C(O)C(F)(F)F.O=C1NCCc2[nH]c(-c3ccnc(-c4ccccc4F)c3)cc21 [B, 2-[2-(2-fluorophenyl)pyridin-4-yl]-1,5,6,7-tetrahydro-4H-pyrrolo[3,2-c]pyridin-4-one trifluoroacetate]",percent inhibition in paw swelling as a function of the dosage rate,SCW-induced arthritis,typical dose-response behavior
same,average paw volume (increase versus vehicle controls),[1],significantly lower increases in paw volume
"O=C1NCCc2[nH]c(-c3ccnc(/C=C/c4ccccc4)c3)cc21 [Compound A, 2-{2-[(E)-2-phenylethenyl]pyridin-4-yl}-1,5,6,7-tetrahydro-4H-pyrrolo[3,2-c]pyridin-4-one]",percent inhibition in paw swelling as a function of the dosage rate,SCW-induced arthritis,typical dose-response behavior
same,average paw volume (increase versus vehicle controls),[1],significantly lower increases in paw volume
C[S+]([O-])c1ccc(-c2nc(-c3ccncc3)c(-c3ccc(F)cc3)[nH]2)cc1 (stereo not drawn) [SB203580],inhibition of activation of MK-2,MK-2,inhibit activation
same,mortality,endotoxin-induced shock,reduce mortality
same,development of collagen-induced arthritis,[2],inhibit the development
same,development of adjuvant arthritis,adjuvant arthritis,inhibit the development
Nc1nccc(-c2c(-c3ccc(F)cc3)ncn2C2CCNCC2)n1 [SB 220025],vascular density of granulomas,granulomas,significant dose-dependent decrease
